Experimental data: the supplement of paper PMC10307832

Assays:
Assay in all cases: relative viability (nuclei count vs DMSO), 5 days (fraction); higher = more cells survive
Veliparib + Decitabine = compound: C[C@]1(c2nc3c(C(N)=O)cccc3[nH]2)CCCN1 [Veliparib] + Nc1ncn([C@H]2C[C@H](O)[C@@H](CO)O2)c(=O)n1 [Decitabine] (partner 2 µM)
Procedure, shortened: (§1)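 For relative viability, nuclei counts in treated wells were divided by those in vehicle wells. Lung cancer cell lines had been pin-tool dosed in 1536-well plates the day after seeding and cultured for 5 days, then fixed and stained in one step (final 0.05% Triton X-100, 1% formaldehyde, 1 ug/ml Hoechst) and imaged at 4×. Doses were one drug alone or a fixed anchor-drug dose plus five library-drug doses (not always all listed) in √10 steps, and values are duplicate-plate medians.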

[1] = compound: COC1=CC=C(C=C1)CN2C=CC3=C2C=C(C=C3)C(=O)NO + O=C(c1cc(Cc2n[nH]c(=O)c3ccccc23)ccc1F)N1CCN(C(=O)C2CC2)CC1 [Olaparib] (partner 8 µM)
Procedure, shortened: as §1

[2] = compound: COC1=CC=C(C=C1)CN2C=CC3=C2C=C(C=C3)C(=O)NO + CS(=O)(=O)CCNCc1ccc(-c2ccc3ncnc(Nc4ccc(OCc5cccc(F)c5)c(Cl)c4)c3c2)o1 [Lapatinib] (partner 2 µM)
Procedure, shortened: as §1

Veliparib + Tozasertib = compound: C[C@]1(c2nc3c(C(N)=O)cccc3[nH]2)CCCN1 [Veliparib] + Cc1cc(Nc2cc(N3CCN(C)CC3)nc(Sc3ccc(NC(=O)C4CC4)cc3)n2)n[nH]1 [Tozasertib] (partner 0.1 µM)
Procedure, shortened: as §1

Cell Line | relative viability (Veliparib + Decitabine; first compound 0.02 µM) | relative viability (Veliparib + Decitabine; first compound 0.06325 µM) | relative viability (Veliparib + Decitabine; first compound 0.2 µM) | relative viability (Veliparib + Decitabine; first compound 0.6325 µM) | relative viability (Veliparib + Decitabine; first compound 2 µM) | relative viability ([1]; first compound 0.08 µM) | relative viability ([1]; first compound 0.253 µM) | relative viability ([1]; first compound 0.8 µM) | relative viability ([1]; first compound 2.53 µM) | relative viability ([1]; first compound 8 µM) | relative viability ([2]; first compound 0.08 µM) | relative viability ([2]; first compound 0.253 µM) | relative viability ([2]; first compound 0.8 µM) | relative viability ([2]; first compound 2.53 µM) | relative viability ([2]; first compound 8 µM) | relative viability (Veliparib + Tozasertib; first compound 0.02 µM) | relative viability (Veliparib + Tozasertib; first compound 0.06325 µM) | relative viability (Veliparib + Tozasertib; first compound 0.2 µM) | relative viability (Veliparib + Tozasertib; first compound 0.6325 µM) | relative viability (Veliparib + Tozasertib; first compound 2 µM)
NCI-H2087 | 0.255 | 0.244 | 0.237 | 0.2 | 0.174 | 0.564 | 0.595 | 0.676 | 0.524 | 0.56 | 0.522 | 1 | 1.05 | 1.05 | 0.807 | 0.258 | 0.235 | 0.222 | 0.203 | 0.27
NCI-H2126 | 0.575 | 0.561 | 0.538 | 0.545 | 0.559 | 0.869 | 0.945 | 0.961 | 0.956 | 0.874 | 0.459 | 0.746 | 0.747 | 0.79 | 0.71 | 0.821 | 0.784 | 0.842 | 0.819 | 0.849
NCI-H2170 | 0.405 | 0.436 | 0.378 | 0.389 | 0.381 | 0.55 | 0.556 | 0.635 | 0.648 | 0.523 | 0.187 | 0.282 | 0.26 | 0.27 | 0.245 | 0.748 | 0.744 | 0.724 | 0.709 | 0.747
NCI-H2347 | 0.625 | 0.556 | 0.616 | 0.582 | 0.587 | 0.53 | 0.53 | 0.651 | 0.67 | 0.524 | 0.517 | 0.896 | 1.03 | 1.01 | 0.904 | 0.55 | 0.501 | 0.492 | 0.553 | 0.541
NCI-H2405 | 0.742 | – | 0.653 | 0.663 | 0.693 | 0.649 | – | 0.85 | 0.887 | 0.799 | 0.523 | 1.03 | 1.11 | 1.17 | 0.871 | 0.793 | 0.689 | 0.714 | 0.724 | 0.777
NCI-H3122 | 0.393 | 0.386 | 0.361 | 0.326 | 0.395 | 0.624 | 0.642 | 0.616 | 0.6 | 0.583 | 0.959 | 0.934 | 1.03 | 1.04 | 0.959 | 0.439 | 0.428 | 0.453 | 0.383 | 0.395
PC-3 [JPC-3] | 0.766 | – | 0.85 | 0.763 | 0.741 | 1.1 | – | 1.11 | 1.19 | 1.14 | 0.423 | 0.486 | 0.493 | 0.49 | 0.478 | 0.87 | 0.902 | 0.822 | 0.864 | 0.845
PC-14 | 0.155 | 0.141 | 0.135 | 0.12 | 0.109 | 0.242 | 0.224 | 0.306 | 0.236 | 0.215 | 0.199 | 0.349 | 0.38 | 0.384 | 0.373 | 0.638 | 0.584 | 0.562 | 0.526 | 0.674
RERF-LC-KJ | 0.658 | 0.631 | 0.607 | 0.72 | 0.674 | 0.829 | 0.825 | 0.986 | 0.816 | 0.806 | 0.428 | 0.881 | 0.924 | 0.95 | 0.869 | 0.515 | 0.5 | 0.521 | 0.481 | 0.485
SK-LU-1 | 0.634 | 0.663 | 0.58 | 0.583 | 0.485 | 0.436 | 0.443 | 0.627 | 0.449 | 0.422 | 0.711 | 0.781 | 1.04 | 0.905 | 0.81 | 0.366 | 0.32 | 0.37 | 0.344 | 0.343
SK-MES-1 | 0.364 | 0.293 | 0.341 | 0.324 | 0.337 | 0.788 | 0.665 | 0.676 | 0.64 | 0.598 | 0.473 | 0.519 | 0.534 | 0.497 | 0.446 | 0.972 | 0.903 | 0.843 | 0.821 | 0.858
UMC-11 | 0.568 | 0.568 | 0.476 | 0.444 | 0.389 | 0.373 | 0.355 | 0.415 | 0.911 | 0.373 | 0.374 | 1.14 | 1.05 | 1.02 | 0.916 | 0.234 | 0.223 | 0.231 | 0.213 | 0.212
